Measured values taken from publication PMC12073402, “A Selective MAP3K1 Inhibitor Facilitates Discovery of NPM1 as a Member of the Network” (Molecules, 2025).

Columns and labels:
Assay in all cases: KiNativ kinome profiling in PANC-1 lysate
Type in all cases: binding
PLK1 = target: T1, PLK1 (Homo sapiens, UniProt P53350)
T1 construct: endogenous in cells; host or cells: PANC-1 cell lysate
In short: (§1)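 PANC-1 lysates were incubated with 5 μM inhibitor or DMSO, then labeled with a desthiobiotin-ATP acyl-phosphate probe that biotinylates conserved kinase lysines. Tryptic peptides were streptavidin-enriched and quantified by LC-MS/MS, reported as % change in MS signal from duplicate treated and duplicate control samples.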

ZC2/TNIK = target: T2, ZC2/TNIK (Homo sapiens, UniProt Q9UKE5); details: Lys1
T2 construct: endogenous in cells; host or cells: PANC-1 cell lysate
In short: as §1

LYN = target: T3, LYN (Homo sapiens, UniProt P07948)
T3 construct: endogenous in cells; host or cells: PANC-1 cell lysate
T3 sequence (P07948 whole entry): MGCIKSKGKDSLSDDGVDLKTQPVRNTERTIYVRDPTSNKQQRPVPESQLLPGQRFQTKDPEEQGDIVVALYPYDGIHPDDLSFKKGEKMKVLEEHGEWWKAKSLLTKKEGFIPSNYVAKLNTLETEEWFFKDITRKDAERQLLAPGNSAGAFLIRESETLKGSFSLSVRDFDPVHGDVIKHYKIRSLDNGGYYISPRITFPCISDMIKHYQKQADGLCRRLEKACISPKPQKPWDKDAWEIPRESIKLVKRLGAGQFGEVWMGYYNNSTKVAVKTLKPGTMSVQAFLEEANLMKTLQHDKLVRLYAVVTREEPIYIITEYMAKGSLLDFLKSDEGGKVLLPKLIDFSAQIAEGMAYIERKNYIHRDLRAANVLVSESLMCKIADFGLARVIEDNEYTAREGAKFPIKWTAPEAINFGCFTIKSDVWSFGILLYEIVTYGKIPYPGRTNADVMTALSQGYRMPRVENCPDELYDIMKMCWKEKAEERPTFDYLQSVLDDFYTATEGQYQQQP
In short: as §1

SRPK1 = target: T4, SRPK1 (Homo sapiens, UniProt Q96SB4); details: Lys2
T4 construct: endogenous in cells; host or cells: PANC-1 cell lysate
In short: as §1

IRAK1 = target: T5, IRAK1 (Homo sapiens, UniProt P51617); details: Lys2
T5 construct: we opted to conduct a kinome screen (KiNativ) in PANC-1 cell lysates; endogenous in cells; host or cells: PANC-1 cell lysate
In short: as §1

JAK1 domain2 = target: T6, JAK1 domain2 (Homo sapiens, UniProt P23458)
T6 construct: we opted to conduct a kinome screen (KiNativ) in PANC-1 cell lysates; endogenous in cells; host or cells: PANC-1 cell lysate
T6 sequence (P23458 whole entry, the tested form may be a part): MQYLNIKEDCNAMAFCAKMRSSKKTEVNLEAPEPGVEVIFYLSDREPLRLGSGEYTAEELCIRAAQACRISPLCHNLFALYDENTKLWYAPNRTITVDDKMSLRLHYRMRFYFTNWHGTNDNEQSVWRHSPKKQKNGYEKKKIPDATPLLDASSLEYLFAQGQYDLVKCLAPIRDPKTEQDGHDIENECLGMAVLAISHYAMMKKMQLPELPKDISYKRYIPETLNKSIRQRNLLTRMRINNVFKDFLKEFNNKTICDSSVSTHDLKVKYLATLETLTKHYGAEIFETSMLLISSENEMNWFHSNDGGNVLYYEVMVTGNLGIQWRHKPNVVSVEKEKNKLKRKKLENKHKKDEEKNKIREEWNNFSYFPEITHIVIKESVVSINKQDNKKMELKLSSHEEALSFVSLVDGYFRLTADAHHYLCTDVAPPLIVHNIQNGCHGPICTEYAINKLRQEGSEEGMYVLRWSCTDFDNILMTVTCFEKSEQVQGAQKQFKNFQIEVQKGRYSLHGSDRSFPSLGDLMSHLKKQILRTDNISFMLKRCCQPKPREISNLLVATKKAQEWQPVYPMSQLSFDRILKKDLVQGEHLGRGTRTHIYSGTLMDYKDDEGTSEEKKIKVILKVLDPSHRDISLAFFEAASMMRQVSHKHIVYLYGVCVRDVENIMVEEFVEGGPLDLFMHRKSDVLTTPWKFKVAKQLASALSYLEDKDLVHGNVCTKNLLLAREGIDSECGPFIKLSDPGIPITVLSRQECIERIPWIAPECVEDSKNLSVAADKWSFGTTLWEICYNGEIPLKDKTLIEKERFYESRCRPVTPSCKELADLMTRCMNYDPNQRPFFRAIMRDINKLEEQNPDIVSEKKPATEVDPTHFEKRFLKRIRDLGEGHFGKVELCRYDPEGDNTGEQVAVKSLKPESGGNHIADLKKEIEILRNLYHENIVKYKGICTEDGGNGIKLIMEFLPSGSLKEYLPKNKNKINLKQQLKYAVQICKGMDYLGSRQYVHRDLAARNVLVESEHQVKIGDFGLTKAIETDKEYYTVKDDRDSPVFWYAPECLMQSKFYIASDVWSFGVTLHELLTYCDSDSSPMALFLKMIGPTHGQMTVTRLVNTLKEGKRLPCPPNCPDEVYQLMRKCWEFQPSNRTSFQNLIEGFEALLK
In short: as §1

PDK1 = target: T7, PDK1 (Homo sapiens, UniProt O15530); details: Lys1
T7 construct: endogenous in cells; host or cells: PANC-1 cell lysate
In short: as §1

p38b = target: T8, p38b (Homo sapiens, UniProt Q15759); details: Other
T8 construct: endogenous in cells; host or cells: PANC-1 cell lysate
In short: as §1

EphB4 = target: T9, EphB4 (Homo sapiens, UniProt P54760); details: ATP Loop
T9 construct: endogenous in cells; host or cells: PANC-1 lysate
In short: as §1

ACK = target: T10, ACK (Homo sapiens, UniProt Q07912)
T10 construct: endogenous in cells; host or cells: PANC-1 cell lysate
T10 sequence (Q07912 whole entry): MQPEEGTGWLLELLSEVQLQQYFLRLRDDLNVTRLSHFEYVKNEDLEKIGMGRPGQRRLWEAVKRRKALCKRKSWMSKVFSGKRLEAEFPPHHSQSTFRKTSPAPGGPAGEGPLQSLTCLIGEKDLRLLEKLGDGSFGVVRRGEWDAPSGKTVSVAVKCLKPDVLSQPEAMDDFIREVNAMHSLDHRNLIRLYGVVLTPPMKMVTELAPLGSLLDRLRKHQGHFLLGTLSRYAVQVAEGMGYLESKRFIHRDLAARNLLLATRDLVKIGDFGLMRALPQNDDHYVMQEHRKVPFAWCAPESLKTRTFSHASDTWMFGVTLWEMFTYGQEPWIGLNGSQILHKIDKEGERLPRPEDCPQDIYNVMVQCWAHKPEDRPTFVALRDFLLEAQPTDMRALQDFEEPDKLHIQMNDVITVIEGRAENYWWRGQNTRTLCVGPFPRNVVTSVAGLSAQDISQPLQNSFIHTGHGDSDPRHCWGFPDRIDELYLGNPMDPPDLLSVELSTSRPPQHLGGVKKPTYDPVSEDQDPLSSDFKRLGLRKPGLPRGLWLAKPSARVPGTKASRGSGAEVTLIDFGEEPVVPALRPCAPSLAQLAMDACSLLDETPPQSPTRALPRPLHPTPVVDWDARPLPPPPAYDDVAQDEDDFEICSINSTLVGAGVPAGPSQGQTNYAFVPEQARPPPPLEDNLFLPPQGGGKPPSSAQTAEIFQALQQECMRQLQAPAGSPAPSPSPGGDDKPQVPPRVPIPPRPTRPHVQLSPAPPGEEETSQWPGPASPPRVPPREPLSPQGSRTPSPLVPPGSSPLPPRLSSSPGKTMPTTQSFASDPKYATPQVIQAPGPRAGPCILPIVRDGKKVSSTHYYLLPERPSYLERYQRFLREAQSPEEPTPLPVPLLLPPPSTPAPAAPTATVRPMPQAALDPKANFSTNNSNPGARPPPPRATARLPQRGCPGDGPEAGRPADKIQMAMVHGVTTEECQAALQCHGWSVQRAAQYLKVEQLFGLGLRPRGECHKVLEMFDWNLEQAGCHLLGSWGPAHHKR
In short: as §1

MAPKAPK3 = target: T11, MAPKAPK3 (Homo sapiens, UniProt Q16644)
T11 construct: endogenous in cells; host or cells: PANC-1 cell lysate
T11 sequence (Q16644 whole entry): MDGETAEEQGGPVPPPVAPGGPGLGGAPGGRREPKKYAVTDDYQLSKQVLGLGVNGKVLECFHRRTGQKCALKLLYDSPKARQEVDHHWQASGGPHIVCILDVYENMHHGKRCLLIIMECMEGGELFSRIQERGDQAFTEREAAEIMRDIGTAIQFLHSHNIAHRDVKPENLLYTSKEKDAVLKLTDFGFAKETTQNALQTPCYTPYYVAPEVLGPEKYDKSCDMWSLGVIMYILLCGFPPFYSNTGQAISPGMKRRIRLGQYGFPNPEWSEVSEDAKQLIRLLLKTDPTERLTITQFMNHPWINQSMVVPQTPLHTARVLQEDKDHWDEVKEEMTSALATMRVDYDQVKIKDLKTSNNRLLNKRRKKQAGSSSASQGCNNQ
In short: as §1

TAK1 = target: T12, TAK1 (Homo sapiens, UniProt O43318); details: Lys2
T12 construct: endogenous in cells; host or cells: PANC-1 cell lysate
In short: as §1

PIP4K2B = target: T13, PIP4K2B (Homo sapiens, UniProt P78356); details: ATP
T13 construct: endogenous in cells; host or cells: PANC-1 cell lysate
In short: as §1

LKB1 = target: T14, LKB1 (Homo sapiens, UniProt Q15831); details: Lys2
T14 construct: we opted to conduct a kinome screen (KiNativ) in PANC-1 cell lysates; endogenous in cells; host or cells: PANC-1 cell lysate
In short: as §1

CDK2 = target: T15, CDK2 (Homo sapiens, UniProt P24941)
T15 construct: endogenous in cells; host or cells: PANC-1 cell lysate
In short: as §1

RSK2 domain2 = target: T16, RSK2 domain2 (Homo sapiens, UniProt P51812); details: Lys2
T16 construct: endogenous in cells; host or cells: PANC-1 cell lysate
In short: as §1

SGK3 = target: T17, SGK3 (Homo sapiens, UniProt Q96BR1); details: Lys1
T17 construct: endogenous in cells; host or cells: PANC-1 cell lysate
In short: as §1

MARK4 = target: T18, MARK4 (Homo sapiens, UniProt Q96L34)
T18 construct: endogenous in cells; host or cells: PANC-1
T18 sequence (Q96L34 whole entry): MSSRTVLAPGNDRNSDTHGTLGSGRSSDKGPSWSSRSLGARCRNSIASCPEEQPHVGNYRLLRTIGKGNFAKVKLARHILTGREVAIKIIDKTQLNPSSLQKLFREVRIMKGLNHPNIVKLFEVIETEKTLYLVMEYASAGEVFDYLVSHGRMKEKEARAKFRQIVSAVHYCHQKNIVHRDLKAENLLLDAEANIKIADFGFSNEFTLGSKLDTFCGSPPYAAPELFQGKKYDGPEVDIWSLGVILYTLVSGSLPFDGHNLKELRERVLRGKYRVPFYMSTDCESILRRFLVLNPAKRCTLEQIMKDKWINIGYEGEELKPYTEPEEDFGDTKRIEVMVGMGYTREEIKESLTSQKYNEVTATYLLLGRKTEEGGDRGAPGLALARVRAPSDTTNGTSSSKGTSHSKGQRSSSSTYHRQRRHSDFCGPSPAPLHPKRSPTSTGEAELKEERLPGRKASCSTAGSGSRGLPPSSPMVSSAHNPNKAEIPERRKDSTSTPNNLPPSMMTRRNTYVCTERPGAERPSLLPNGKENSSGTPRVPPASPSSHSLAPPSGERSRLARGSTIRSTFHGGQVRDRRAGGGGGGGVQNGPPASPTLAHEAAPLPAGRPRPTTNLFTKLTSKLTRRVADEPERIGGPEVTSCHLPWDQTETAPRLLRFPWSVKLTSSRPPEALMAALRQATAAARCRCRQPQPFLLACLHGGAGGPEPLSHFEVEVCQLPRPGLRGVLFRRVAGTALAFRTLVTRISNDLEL
In short: as §1

MPSK1 = target: T19, MPSK1 (Homo sapiens, UniProt O75716); details: Lys2
T19 construct: endogenous in cells; host or cells: PANC-1
In short: as §1

CDC2 = target: T20, CDC2 (Homo sapiens, UniProt P06493)
T20 construct: endogenous in cells; host or cells: PANC-1 cell lysate
T20 sequence (P06493 whole entry): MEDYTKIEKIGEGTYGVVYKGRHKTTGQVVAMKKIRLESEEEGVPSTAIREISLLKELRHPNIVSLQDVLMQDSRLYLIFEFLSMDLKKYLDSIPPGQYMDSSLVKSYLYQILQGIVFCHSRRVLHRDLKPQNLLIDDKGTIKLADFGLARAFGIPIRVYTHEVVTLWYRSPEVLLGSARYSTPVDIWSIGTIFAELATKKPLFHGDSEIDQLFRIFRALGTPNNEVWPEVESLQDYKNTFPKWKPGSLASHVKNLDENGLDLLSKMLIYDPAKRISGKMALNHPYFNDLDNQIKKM
In short: as §1

PIK3C3 = target: T21, PIK3C3 (Homo sapiens, UniProt Q8NEB9); details: ATP
T21 construct: endogenous in cells; host or cells: PANC-1 cell lysate
T21 sequence (Q8NEB9 whole entry): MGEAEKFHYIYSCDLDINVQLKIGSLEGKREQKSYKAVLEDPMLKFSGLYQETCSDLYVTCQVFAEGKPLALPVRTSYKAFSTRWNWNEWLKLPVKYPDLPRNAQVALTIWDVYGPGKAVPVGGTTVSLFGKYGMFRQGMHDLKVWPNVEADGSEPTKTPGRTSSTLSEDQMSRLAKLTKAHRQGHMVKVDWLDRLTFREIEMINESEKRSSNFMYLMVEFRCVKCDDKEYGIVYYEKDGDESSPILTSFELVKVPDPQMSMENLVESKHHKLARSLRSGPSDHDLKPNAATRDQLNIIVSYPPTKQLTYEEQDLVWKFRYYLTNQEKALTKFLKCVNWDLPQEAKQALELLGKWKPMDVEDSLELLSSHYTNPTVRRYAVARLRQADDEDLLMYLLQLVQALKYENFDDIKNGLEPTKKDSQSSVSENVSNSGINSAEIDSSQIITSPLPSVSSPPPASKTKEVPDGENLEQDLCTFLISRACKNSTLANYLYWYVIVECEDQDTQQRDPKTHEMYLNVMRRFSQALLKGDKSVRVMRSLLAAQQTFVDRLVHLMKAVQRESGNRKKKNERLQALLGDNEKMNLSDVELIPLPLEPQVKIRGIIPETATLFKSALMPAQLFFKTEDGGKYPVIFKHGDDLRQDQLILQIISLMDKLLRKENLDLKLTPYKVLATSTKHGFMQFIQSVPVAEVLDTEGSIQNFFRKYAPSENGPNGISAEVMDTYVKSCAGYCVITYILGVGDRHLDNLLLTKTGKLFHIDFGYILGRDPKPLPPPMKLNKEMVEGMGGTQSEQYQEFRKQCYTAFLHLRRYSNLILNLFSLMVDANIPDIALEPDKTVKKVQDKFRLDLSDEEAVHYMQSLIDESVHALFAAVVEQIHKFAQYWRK
In short: as §1

MST3 = target: T22, MST3 (Homo sapiens, UniProt Q9Y6E0); details: Lys2
T22 construct: endogenous in cells; host or cells: PANC-1
In short: as §1

CDK11, CDK8 = details: 5 µM; Lys2; DLKPANILVMGEGPER
In short: as §1

NEK3 = target: T23, NEK3 (Homo sapiens, UniProt P51956); details: ATP Loop
T23 construct: endogenous in cells; host or cells: PANC-1 cell lysate
In short: as §1

RIPK1 = target: T24, RIPK1 (Homo sapiens, UniProt Q13546); details: Lys2
T24 construct: endogenous in cells; host or cells: PANC-1 cell lysate
In short: as §1

Cn1cc(-c2cnc3ccc(NC(=O)Nc4ccc(F)c(C(F)(F)F)c4)cc3n2)cn1 [51-106, 1-(4-Fluoro-3-(trifluoromethyl)phenyl)-3-(3-(1-methyl-1H-pyrazol-4-yl)quinoxalin-6-yl)urea]
inhibition at 5 µM (PLK1; Lys1, CFEISDADTKEVFAGKIVPK): ≤ 0%
inhibition at 5 µM (PLK1; Lys2, DLKLGNLFLNEDLEVK): 10.9%
inhibition at 5 µM (ZC2/TNIK): 11.2%
inhibition at 5 µM (LYN; ATP Loop, EGAKFPIKWTAPEAINFGCFTIK): ≤ 0%
inhibition at 5 µM (LYN; Lys1, VAVKTLKPGTMSVQAFLEEANLMK): 1.8%
inhibition at 5 µM (SRPK1): 4.4%
inhibition at 5 µM (IRAK1): ≤ 0%
% Inhibition (JAK1 domain2; 5 µM, ATP Loop, IGDFGLTKAIETDKEYYTVK): NB (NB = No Binding (≤ 0))
inhibition at 5 µM (JAK1 domain2; Lys1, […]): ≤ 0%
inhibition at 5 µM (PDK1): ≤ 0%
inhibition at 5 µM (p38b): ≤ 0%
inhibition at 5 µM (EphB4): 1.6%
% Inhibition (ACK; 5 µM, Activation Loop, KVPFAWCAPESLK): NB (NB = No Binding (≤ 0))
inhibition at 5 µM (ACK; Lys1, […]): ≤ 0%
% Inhibition (MAPKAPK3; 5 µM, Lys1, CALKLLYDSPK): NB (NB = No Binding (≤ 0))
inhibition at 5 µM (MAPKAPK3; ATP Loop, […]): ≤ 0%
inhibition at 5 µM (TAK1): ≤ 0%
inhibition at 5 µM (PIP4K2B): ≤ 0%
inhibition at 5 µM (LKB1): ≤ 0%
% Inhibition (CDK2; 5 µM, Lys1, LTGEVVALKK): 12%
inhibition at 5 µM (CDK2; Lys1, LTGEVVALKK): 12.3%
inhibition at 5 µM (CDK2; Lys2, DLKPQNLLINTEGAIK): ≤ 0%
inhibition at 5 µM (RSK2 domain2): 5.7%
inhibition at 5 µM (SGK3): ≤ 0%
inhibition at 5 µM (MARK4; Lys1, EVAIKIIDKTQLNPSSLQK): ≤ 0%
inhibition at 5 µM (MARK4; Lys2, DLKAENLLLDAEANIK): 10.3%
inhibition at 5 µM (MPSK1): ≤ 0%
inhibition at 5 µM (CDC2; Lys1, TTGQVVAMKK): 20.3%
inhibition at 5 µM (CDC2; Lys2, DLKPQNLLIDDK): ≤ 0%
inhibition at 5 µM (CDC2; Protein Kinase Domain, KPLFHGDSEIDQLFR): ≤ 0%
inhibition at 5 µM (PIK3C3; TEDGGKYPVIFKHGDDLR): 4.9%
inhibition at 5 µM (PIK3C3; TEDGGKYPVIFKHGDDLRQDQLILQIISLMDK): ≤ 0%
inhibition at 5 µM (MST3): 4.2%
% Inhibition (CDK11, CDK8): 15.4%
inhibition at 5 µM (NEK3): 5.1%
inhibition at 5 µM (RIPK1): 3.7%
